According to article PMC3867986 (ACS medicinal chemistry letters, 2013):

Legend:
[1] = Chemical stability; conditions: long-term storage, HPLC analysis
[2] = target: BirA (biotin protein ligase) (Mycobacterium tuberculosis, UniProt I6YFP0); type: binding; conditions: direct stoichiometric titration of BirA, duplicate
BirA (biotin protein ligase), sequence (I6YFP0 whole entry, looked up): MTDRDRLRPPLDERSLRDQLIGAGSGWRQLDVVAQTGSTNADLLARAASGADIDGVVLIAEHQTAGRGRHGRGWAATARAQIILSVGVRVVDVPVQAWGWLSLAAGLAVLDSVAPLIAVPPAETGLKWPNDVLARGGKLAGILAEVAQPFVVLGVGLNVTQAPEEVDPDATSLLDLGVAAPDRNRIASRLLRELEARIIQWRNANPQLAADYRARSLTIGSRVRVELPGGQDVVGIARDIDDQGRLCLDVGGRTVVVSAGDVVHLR

CCN(CC)CC.Nc1ncnc2c1ncn2[C@@H]1O[C@H](CCS(=O)(=O)NC(=O)CCCC[C@@H]2SC[C@@H]3NC(=O)N[C@@H]32)[C@@H](O)[C@H]1O [Compound 10]
chemical stability [1]: no degradation upon long-term storage

CCN(CC)CC.Nc1nccc2c1ncn2[C@@H]1O[C@H](COS(=O)(=O)NC(=O)CCCC[C@@H]2SC[C@@H]3NC(=O)N[C@@H]32)[C@@H](O)[C@H]1O [Compound 11]
ΔH [2]: -21.2 kcal/mol

CC(C)(C)C#Cc1nc(N)c2ncn([C@@H]3O[C@H](COS(=O)(=O)NC(=O)CCCC[C@@H]4SC[C@@H]5NC(=O)N[C@@H]54)[C@@H](O)[C@H]3O)c2n1.CCN(CC)CC [Compound 13]
ΔH [2]: -13.5 kcal/mol
